Key:
Format in all cases: cell-based
K562 cells = assay: Cell growth inhibitory activity assay (CellTiter-Glo), K562 cells; settings: Homo sapiens, 72 h, CTG cell viability
Method: (§1) In this assay, the Celltiter-Glo (CTG) kit provided by Promega was used, and it is a homogeneous cell viability assay method. The cell viability of cultured cells was measured by quantifying ATP. K562 cells were purchased from Nanjing Kebai, product number CBP60529; Ba/F3 parental cells were purchased from RIKEN BRC, product number RCB0805; other cells containing BCR-ABL1 WT, BCR-ABL1 T315I, BCR-ABL1 T315M, BCR-ABL1 Y253H/E255K, BCR-ABL1 E255V/T3151, BCR-ABL1 A424T, BCR-ABL1 A337V, BCR-ABL1 P465S, BCR-ABL1 V468F, and BCR-ABL1 I502L were all monoclonal engineered cell lines obtained by transducting Ba/F3 parental cells with the lentivirus plasmids containing WT or corresponding mutated BCR-ABL1.
(§2) The steps of cell viability assay are as follows: • a) Cells in logarithmic growth phase were collected. Cell suspension was prepared and the cells were counted. Concentration of the cells was calculated. • b) The cell suspension was diluted to the required concentration and then added to the middle wells of a 96-well plate, and PBS was added to the edge wells. The wells with no cells and only culture medium were used as blank controls. • c) In addition to the cell plate used for compound analysis, another 96-well plate was prepared as a T0 plate, and 3-6 blank wells and 3-6 cell wells were added. The next day, CTG was used to test the cell viability as the T0 viability value of the cells. • d) The cell plate was incubated at 37 °C in a 5% CO2 incubator overnight. • e) The next day, each concentration of a compound subjected to a gradient dilution was added, and the cell plate was incubated at 37 °C in a 5% CO2 incubator for 72 h. The wells with no compound and only 0.5% DMSO were used as positive controls for cell growth. • f) CTG reagent (CellTiter-Glo kit) was added according to the manufacturer's instructions to test the cell viability value. • g) The plate was read using Biotek cytation3.0 microplate reader and the data were exported. • h) IC50 was calculated using GraphPad Prism 7.0 software.
(§3) The IC50 (half-maximal inhibitory concentration) of the compound was obtained using the following nonlinear fitting formula: Y = Bottom + (Top−Bottom)/(1+10^(∧)((LogIC50−X)*HillSlope)) [formula] • X: Log value of the compound concentration • Y: Inhibition rate (% inhibition) • Top: Maximum response • Bottom: Baseline response • HillSlope: Slope of the curve
(§4) The formula for calculating cell inhibition rate (inhibition rate %) was: [formula]

Ba/F3 BCR-ABL1 WT = target: T1, Ba/F3 BCR-ABL1 WT (Homo sapiens, UniProt P00519+P11274); assay: Cell growth inhibitory activity assay (CellTiter-Glo), Ba/F3 BCR-ABL1 WT cells; settings: 72 h, CTG cell viability
T1 construct: BCR (N-terminal fusion partner of the oncoprotein); expressed in transfected cells; host or cells: Ba/F3 (lentiviral transduction, monoclonal line)
Method: as §1, §2, §3, §4

Ba/F3 BCR-ABL1 T315I = target: T2, Ba/F3 BCR-ABL1 T315I (Homo sapiens, UniProt P00519+P11274, T315I); assay: Cell growth inhibitory activity assay (CellTiter-Glo), Ba/F3 BCR-ABL1 T315I cells; settings: 72 h, CTG cell viability
T2 construct: BCR (N-terminal fusion partner of the oncoprotein); expressed in transfected cells; host or cells: Ba/F3 (lentiviral transduction, monoclonal line)
Method: as §1, §2, §3, §4

Ba/F3 parental cells = assay: Cell growth inhibitory activity assay (CellTiter-Glo), Ba/F3 parental cells; settings: Mus musculus, BaF3, 72 h, CTG cell viability, read-out: IC50 Ba/F3 BCR-ABL1 Parental
Method: as §1, §2, §3, §4

| Compound | IC50 (K562 cells) [nM] | IC50 (Ba/F3 BCR-ABL1 WT) [nM] | IC50 (Ba/F3 BCR-ABL1 T315I) [nM] | IC50 (Ba/F3 parental cells) [nM] |
| --- | --- | --- | --- | --- |
| O=C(Nc1ccc(OC(F)(F)Cl)cc1)c1cnc(N2CC[C@@H](F)C2)c(-c2cnc3c(c2)-c2nn(-c4nccc(-c5cccnc5)n4)cc2C3)c1 [T-9, (R)-N-(4-(chlorodifluoromethoxy)phenyl)-6-(3-fluoropyrrolidin-1-yl)-5-(2-(4-(pyridin-3-yl)pyrimidin-2-yl)-2,4-dihydropyrazolo[3',4':3,4]cyclopenta[1,2-b]pyridin-7-yl)nicotinamide] | ≤ 5 | ≤ 5 | ≤ 5 | > 1000 |
| CC(C)n1ncc2c1-c1cc(-c3cc(C(=O)Nc4ccc(OC(F)(F)Cl)cc4)cnc3N3CC[C@@H](F)C3)cnc1C2 [T-10-A, (R)-N-(4-(chlorodifluoromethoxy)phenyl)-6-(3-fluoropyrrolidin-1-yl)-5-(1-isopropyl-1,4-dihydropyrazolo[3',4':3,4]cyclopenta[1,2-b]pyridin-7-yl)nicotinamide] | ≤ 5 | 5 to 50 | 5 to 50 | > 1000 |
| CC(C)n1cc2c(n1)-c1cc(-c3cc(C(=O)Nc4ccc(OC(F)(F)Cl)cc4)cnc3N3CC[C@@H](F)C3)cnc1C2 [T-10-B, (R)-N-(4-(chlorodifluoromethoxy)phenyl)-6-(3-fluoropyrrolidin-1-yl)-5-(2-isopropyl-2,4-dihydropyrazolo[3',4':3,4]cyclopenta[1,2-b]pyridin-7-yl)nicotinamide] | ≤ 5 | ≤ 5 | ≤ 5 | > 1000 |
| O=C(Nc1ccc(OC(F)(F)Cl)cc1)c1cnc(N2CC[C@H](F)C2)c(-c2cnc3c(c2)-c2nn(-c4ncc(F)cn4)cc2C3)c1 [T-13, (S)-N-(4-(chlorodifluoromethoxy)phenyl)-5-(2-(5-fluoropyrimidin-2-yl)-2,4-dihydropyrazolo[3',4':3,4]cyclopenta[1,2-b]pyridin-7-yl)-6-(3-fluoropyrrolidin-1-yl)nicotinamide] | ≤ 5 | ≤ 5 | ≤ 5 | > 1000 |
| Cc1cnc(-n2cc3c(n2)-c2cc(-c4cc(C(=O)Nc5ccc(OC(F)(F)Cl)cc5)cnc4N4CC[C@@H](F)C4)cnc2C3)nc1 [T-14, (R)-N-(4-(chlorodifluoromethoxy)phenyl)-6-(3-fluoropyrrolidin-1-yl)-5-(2-(5-methylpyrimidin-2-yl)-2,4-dihydropyrazolo[3',4':3,4]cyclopenta[1,2-b]pyridin-7-yl)nicotinamide] | ≤ 5 | ≤ 5 | ≤ 5 | > 1000 |
| O=C(Nc1ccc(OC(F)(F)Cl)cc1)c1cnc(N2CC[C@@H](F)C2)c(-c2cnc3c(c2)-c2nn(-c4ncc(C(F)(F)F)cn4)cc2C3)c1 [T-15, (R)-N-(4-(chlorodifluoromethoxy)phenyl)-6-(3-fluoropyrrolidin-1-yl)-5-(2-(5-(trifluoromethyl)pyrimidin-2-yl)-2,4-dihydropyrazolo[3',4':3,4]cyclopenta[1,2-b]pyridin-7-yl)nicotinamide] | ≤ 5 | ≤ 5 | 5 to 50 | > 1000 |
| C[C@@H]1COCc2nc3cc(C(=O)Nc4ccc(OC(F)(F)Cl)cc4)cc(-c4cnc5c(c4)-c4nn(C)cc4C5)c3n21 [T-16, (R)-N-(4-(chlorodifluoromethoxy)phenyl)-4-methyl-6-(2-methyl-2,4-dihydropyrazolo[3',4':3,4]cyclopenta[1,2-b]pyridin-7-yl)-3,4-dihydro-1H-benzo[4,5]imidazo[2,1-c][1,4]oxazine-8-carboxamide] | ≤ 5 | ≤ 5 | ≤ 5 | > 1000 |
| COc1cnc(-n2cc3c(n2)-c2cc(-c4cc(C(=O)Nc5ccc(OC(F)(F)Cl)cc5)cnc4N4CC[C@@H](F)C4)cnc2C3)nc1 [T-17, (R)-N-(4-(chlorodifluoromethoxy)phenyl)-6-(3-fluoropyrrolidin-1-yl)-5-(2-(5-methoxypyrimidin-2-yl)-2,4-dihydropyrazolo[3',4':3,4]cyclopenta[1,2-b]pyridin-7-yl)nicotinamide] | ≤ 5 | ≤ 5 | ≤ 5 | > 1000 |
| N#Cc1ccc(-c2ccnc(-n3cc4c(n3)-c3cc(-c5cc(C(=O)Nc6ccc(OC(F)(F)Cl)cc6)cnc5N5CC[C@@H](F)C5)cnc3C4)n2)cn1 [T-19, (R)-N-(4-(chlorodifluoromethoxy)phenyl)-5-(2-(4-(6-cyanopyridin-3-yl)pyrimidin-2-yl)-2,4-dihydropyrazolo[3',4':3,4]cyclopenta[1,2-b]pyridin-7-yl)-6-(3-fluoropyrrolidin-1-yl)nicotinamide] | ≤ 5 | ≤ 5 | ≤ 5 | > 1000 |
| O=C(Nc1ccc(OC(F)(F)Cl)cc1)c1cnc(N2CC[C@@H](F)C2)c(-c2cnc3c(c2)-c2nn(-c4nccc(-c5cncnc5)n4)cc2C3)c1 [T-22] | ≤ 5 | ≤ 5 | ≤ 5 | > 1000 |
| CC(C)n1cnc2cc(C(=O)Nc3ccc(OC(F)(F)Cl)cc3)cc(-c3cnccn3)c21 [T-23, N-(4-(chlorodifluoromethoxy)phenyl)-1-isopropyl-7-(pyrazin-2-yl)-1H-benzo[d]imidazole-5-carboxamide] | 5 to 50 | ≤ 5 | 50 to 1000 | > 1000 |
| C[C@@H]1CCOc2nc3cc(C(=O)Nc4ccc(OC(F)(F)Cl)cc4)cc(-c4cnc5c(c4)C(=O)N(C)C5)c3n21 [T-24, (R)-N-(4-(chlorodifluoromethoxy)phenyl)-4-methyl-6-(6-methyl-5-oxo-6,7-dihydro-5H-pyrrolo[3,4-b]pyridin-3-yl)-3,4-dihydro-2H-benzo[4,5]imidazo[2,1-b][1,3]oxazine-8-carboxamide] | ≤ 5 | 5 to 50 | 50 to 1000 | > 1000 |
| Cn1ccc(-c2ccnc(-n3cc4c(n3)-c3cc(-c5cc(C(=O)Nc6ccc(OC(F)(F)Cl)cc6)cnc5N5CC[C@@H](F)C5)cnc3C4)n2)n1 [T-26, (R)-N-(4-(chlorodifluoromethoxy)phenyl)-6-(3-fluoropyrrolidin-1-yl)-5-(2-(4-(1-methyl-1H-pyrazol-3-yl)pyrimidin-2-yl)-2,4-dihydropyrazolo[3',4':3,4]cyclopenta[1,2-b]pyridin-7-yl)nicotinamide] | ≤ 5 | ≤ 5 | ≤ 5 | > 1000 |
| O=C(Nc1ccc(OC(F)(F)Cl)cc1)c1cnc(N2CC[C@@H](F)C2)c(-c2cnc3c(c2)-c2nn(-c4ncc5ccccc5n4)cc2C3)c1 [T-29, (R)-N-(4-(chlorodifluoromethoxy)phenyl)-6-(3-fluoropyrrolidin-1-yl)-5-(2-(quinazolin-2-yl)-2,4-dihydropyrazolo[3',4':3,4]cyclopenta[1,2-b]pyridin-7-yl)nicotinamide] | ≤ 5 | ≤ 5 | 5 to 50 | > 1000 |
| O=C(Nc1ccc(OC(F)(F)Cl)cc1)c1cnc(N2CC[C@@H](F)C2)c(-c2cnc3c(c2)-c2nn(-c4nccc(N5CCOCC5)n4)cc2C3)c1 [T-34, (R)-N-(4-(chlorodifluoromethoxy)phenyl)-6-(3-fluoropyrrolidin-1-yl)-5-(2-(4-morpholinopyrimidin-2-yl)-2,4-dihydropyrazolo[3',4':3,4]cyclopenta[1,2-b]pyridin-7-yl)nicotinamide] | ≤ 5 | ≤ 5 | ≤ 5 | > 1000 |
| C[C@@H]1CN(C)Cc2nc3cc(C(=O)Nc4ccc(OC(F)(F)Cl)cc4)cc(-c4cnc5c(c4)C(=O)N(C4CC4)C5)c3n21 [T-36, (R)-N-(4-(chlorodifluoromethoxy)phenyl)-6-(6-cyclopropyl-5-oxo-6,7-dihydro-5H-pyrrolo[3,4-b]pyridin-3-yl)-2,4-dimethyl-1,2,3,4-tetrahydrobenzo[4,5]imidazo[1,2-a]pyrazine-8-carboxamide] | ≤ 5 | ≤ 5 | > 1000 | > 1000 |

— patent EP4768484A1, “HETEROCYCLIC FUSED RING COMPOUND, AND COMPOSITION AND USE THEREOF” (Shenzhen TargetRx, Inc., priority 2023, dated 2025)
